The text below walks through data of US9320271B2, “Microbial composition” (Rohm and Haas Company, priority 2011, dated 2016).

For the experiment, the system named is Staphylococcus aureus (10788 strain). Nature of the experiment: 15 second contact kill test / antimicrobial efficacy of actives against S. aureus in water. The format is cell-based. Conditions: 0.1% 3 isopropyl 6 methyl catechol (IPMC) alone. How it is done: Selected materials were also tested against a representative Grant positive Staphylococcus aureus. An overnight culture of Staphylococcus aureus (10788 strain) was inoculated onto a […] Soy Agar (TSA) plate and grown for ca. 18 hrs at 37° C. The culture S. aureus was washed from the plate using sterile saline (0.85% NaCl) solution and a sterile spreader and suspended in 50 ml saline. This suspension was separated into equal volumes and centrifuged at 4000 rpm for 15 minutes. […] Here, OD620 indicates the absorbance of a sample in a cuvette of 1.0 cm path length at a wavelength of 620 nm. This bacterial stock was used for assaying against antimicrobial actives (in triplicate). The following assay describes the testing of 8 materials using 6 dilutions across half of a 96-well micro titre plate (MTP). Using this approach it is possible to assay 16 actives (without replicates) with one full dilution plate, replicating this set up in two halves of the plate columns, 1-6 and 7-12. 1M solutions of the test actives were prepared in dimethylsulphoxide (DMSO). […] Aliquots (270 μl) of the materials at 1.11 times the final concentration were dispensed into the wells of the MTP along one column (A1-H1). This MTP was labelled as the “Screening plate”. In another MTP, labelled as the “Dilution plate”, […] of D/E neutralising solution from DIFCO Composition was added to column 1. The composition of the neutralising solution was as follows: pancreatic digest of casein, 5.0 g/L; […] Dextrose, 10 g/L, sodium thioglycollate, 1.0 g/L, sodium thiosulphate, 6.0 g/L; sodium bisulphite, 2.5 g/L; […] […] From the colony number in this segment, NMBS is calculated by the formula: NMBS=log {Ncol·10^DF·100/3} Here, Ncol is the colony count, and DF is the dilution factor taken from the MTP-well corresponding to the TSA plate segment (i.e. DF may range from 1 for the quench, to 6 for the highest dilution). […] Here, OD620 indicates the absorbance of a sample in a cuvette of 1.0 cm path length at a wavelength, of 620 nm. […]

In the case of `Cc1ccc(C(C)C)c(O)c1O` [3-isopropyl-6-methylbenzene-1,2-diol], the “S. aureus 6538 Log Reduction” value was −0.07.
